Legend:
U-251 = assay: Cytotoxicity against human U251 cells assessed as decrease in cell proliferation after 72 hrs by SRB assay; assay type: functional, cell-based; conditions: U-251, 72 h
[1] = Cytotoxicity against human IN1528 cells assessed as decrease in cell proliferation after 72 hrs by SRB assay; assay type: functional, cell-based; conditions: IN1528, 72 h
[2] = Cytotoxicity against human IN1760 cells assessed as decrease in cell proliferation after 72 hrs by SRB assay; assay type: functional, cell-based; conditions: IN1760, 72 h
[3] = Cytotoxicity against human U87 cells assessed as decrease in cell proliferation after 72 hrs by SRB assay; assay type: functional, cell-based, U-87MG ATCC; conditions: U-87 MG
[4] = Cytotoxicity against human IN1472 cells assessed as decrease in cell proliferation after 72 hrs by SRB assay; assay type: functional, cell-based; conditions: IN1472, 72 h

SMILES	EC50 (U-251) [µM]	EC50 [1] [µM]	EC50 [2] [µM]	EC50 [3] [µM]	EC50 [4] [µM]
CC(=O)n1cc(CO)c2ccccc21	1760	5820	> 10000	–	–
CC(=O)n1c(-c2ccccc2)c(CO)c2ccccc21	600	> 10000	> 10000	–	–
Cc1ccc(S(=O)(=O)n2cc(CO)c3ccccc32)cc1	140	440	650	–	–
OCc1csc2ccccc12	1240	3990	1080	–	–
c1ccc(-c2[nH]c3ccccc3c2Cc2c(-c3ccccc3)[nH]c3ccccc23)cc1	50	270	50	–	–
OCCc1c(-c2ccccc2)[nH]c2ccccc12	250	4	330	110	350
OCc1c(-c2ccccc2)[nH]c2ccccc12 [(2-PHENYL-1H-INDOL-3-YL)METHANOL]	130	10	1430	30	480
c1ccc2c(Cc3c[nH]c4ccccc34)c[nH]c2c1 [ARUNDINE]	280	440	230	–	–
OCc1c[nH]c2ccccc12 [INDOLE-3-CARBINOL]	390	119	1580	290	950
OCCc1c[nH]c2ccccc12 [TRYPTOPHOL]	1220	1740	4570	580	1950

Source: ChEMBL document CHEMBL4004876, “Preliminary SAR on indole-3-carbinol and related fragments reveals a novel anticancer lead compound against resistant glioblastoma cells” (Bioorg Med Chem Lett, 2017)
